Consider 15 molecules from ChEMBL document CHEMBL1127331, “Pyridobenzoxazepine and pyridobenzothiazepine derivatives as potential central nervous system agents: synthesis and neurochemical study” (J Med Chem, 1994).

SMILES strings stand for the structures.

Assay [1] addresses Serotonin 2 (5-HT2) receptor (Rattus norvegicus, UniProt P30994+P08909+P14842).
Description: Binding affinity against serotonin 5-hydroxytryptamine 2 receptor
For assay [2], the target named is Muscarinic acetylcholine receptor.
Description: Binding affinity against muscarinic (M) receptor
Another assay has as its target D(1A) dopamine receptor (Rattus norvegicus, UniProt P18901).
For assay [3], the species on record is Rattus norvegicus. As to the kind of experiment: animal or person. Particulars: sc, read-out: Inhibition.
Description: (§1) Inhibitory activity in apomorphine antagonism test at a dose of 20 mg/kg, sc
The species entered for assay [4] is Rattus norvegicus. In words: animal or person. Particulars: sc.
Description: as §1

D(1A) dopamine receptor, sequence (P18901 whole entry): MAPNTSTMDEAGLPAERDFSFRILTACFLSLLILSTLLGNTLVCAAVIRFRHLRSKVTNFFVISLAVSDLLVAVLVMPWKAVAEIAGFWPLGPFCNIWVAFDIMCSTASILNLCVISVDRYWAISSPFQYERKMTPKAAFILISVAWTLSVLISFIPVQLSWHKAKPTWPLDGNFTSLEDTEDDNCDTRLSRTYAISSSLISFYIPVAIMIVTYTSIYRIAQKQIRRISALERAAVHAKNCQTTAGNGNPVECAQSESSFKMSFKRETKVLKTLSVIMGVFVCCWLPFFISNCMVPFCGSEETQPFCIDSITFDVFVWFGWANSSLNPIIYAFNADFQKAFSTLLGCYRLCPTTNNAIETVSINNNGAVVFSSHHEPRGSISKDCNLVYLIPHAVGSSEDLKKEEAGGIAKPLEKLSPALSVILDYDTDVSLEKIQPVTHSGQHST
Description for D(1A) dopamine receptor: Binding affinity against dopamine receptor D1

By Ki is commonly meant the dissociation constant of the complex between target and ligand, obtained from inhibition or displacement. For the molecule `CN1CCN(C2=Nc3ccccc3Oc3ncccc32)CC1`, the figures for the “-Log Ki” value in assay [1] and in assay [2] were 5.85 and 5.47, respectively. This molecule also showed a Ki at D(1A) dopamine receptor of 2400 nM. In addition, the inhibition in vivo at 20 mg/kg in the assay listed under Rattus norvegicus [3] was determined as 0%.
The like results for `CN1CCN(C2=Nc3cc(Cl)ccc3Oc3ncccc32)CC1` were, in that order, 7.19, 5.65, 302 nM and 0%.
Consider `CN1CCN(C2=Nc3cccnc3Oc3ccccc32)CC1`, for which the “-Log Ki” value worked out at 4.65 in assay [1] and 6.07 in assay [2]. In addition, in the assay listed under Rattus norvegicus [3], the inhibition in vivo at 20 mg/kg stood at 0%.
As to `CN1CCN(C2=Nc3cccnc3Oc3ccc(Cl)cc32)CC1`, the “-Log Ki” value in assay [1] stood at 7.35; in assay [2], 5.86. Moreover, affinity on D(1A) dopamine receptor was put at a Ki of 1070 nM. In addition, the inhibition in vivo at 20 mg/kg in the assay listed under Rattus norvegicus [3] is 100%.
The like results for `CN1CCN(C2=Nc3cnccc3Sc3ccccc32)CC1` were, in that order, 6.55, 6.68, 15500 nM and 0%.
For `Cc1ccc2c(c1)N=C(N1CCN(C)CC1)c1cccnc1O2`, in that order: 7.01, 5.42, 759 nM and 0%.
Turning to `CN1CCN(C2=Nc3ccccc3Sc3ncccc32)CC1`, the results for the “-Log Ki” value in assay [1] and in assay [2] were 6.29 and 5.61, respectively. At D(1A) dopamine receptor, this molecule showed an inhibition constant (Ki) of 1620 nM. Moreover, the inhibition in vivo at 20 mg/kg in the assay listed under Rattus norvegicus [3] is 0%.
With `CN1CCN(C2=Nc3cccnc3Sc3ccc(Cl)cc32)CC1`, the “-Log Ki” value is recorded as 7.35 in assay [1] and 5.75 in assay [2]. In addition, the Ki on D(1A) dopamine receptor was 676 nM. The inhibition in vivo at 20 mg/kg in the assay listed under Rattus norvegicus [3] was found to be 100%.
For `CN1CCN(C2=Nc3cccnc3Sc3ccccc32)CC1`, in that order: 5.94, 6.13, 8130 nM and 0%.
What is called ED50 is the midpoint of the dose-response relation. The low end stands for an effect at a small dose, the high end for a need for a large dose. Take `CN1CCN(C2=Nc3ccccc3Sc3ccc(Cl)cc32)CC1` [CLOTHIAPINE]: the 50% effect level in the assay listed under Rattus norvegicus [4] (ED50) was put at a dose of 0.72 mg/kg. The “-Log Ki” value in assay [1] amounted to 9.23. Moreover, the inhibition in vivo at 20 mg/kg in the assay listed under Rattus norvegicus [3] amounted to 100%.
In the case of `CN1CCN(C2=Nc3cc(Cl)ccc3Nc3ccccc32)CC1` [CLOZAPINE], the inhibition in vivo at 20 mg/kg in the assay filed under Rattus norvegicus [3] amounted to 0%.
Regarding `CN1CCN(C2=Nc3cc(F)ccc3Cc3ccccc32)CC1` [FLUPERLAPINE], the “-Log Ki” value in assay [1] amounted to 8.41.
Consider `O=C(CCCN1CCC(O)(c2ccc(Cl)cc2)CC1)c1ccc(F)cc1` [HALOPERIDOL], for which, in the assay filed under Rattus norvegicus [4], it took a dose of 0.14 mg/kg to reach the 50% effect level (ED50). Also, in the assay listed under Rattus norvegicus [3], the inhibition in vivo at 20 mg/kg turned out to be 100%.
On to `CN1CCN(C2=Nc3cc(Cl)ccc3Sc3ccccc32)CC1` [ISOCLOTHIAPINE], for which the “-Log Ki” value in assay [1] turned out to be 8.38.
The molecule `CN1CCN(C2=Nc3ccccc3Nc3ccc(Cl)cc32)CC1` [ISOCLOZAPINE] came in with an ED50 in the assay filed under Rattus norvegicus [4] of 1.7 mg/kg.
